Measurements as given in patent US12606528B2, “Methods and materials for inhibiting NF-kB activity” (University of Pittsburgh - Of the Commonwealth System of …, priority 2019, dated 2026).
Like-named read-outs stand apart in the source and are kept apart here.

Experiments:
[1] = system: NF-κB; assay: NF-κB assay: THP1-NF-κB-LUC cells, LPS-stimulated secreted luciferase; type: cell-based; conditions: THP1-NF-κB-LUC cells, read-out: IC50 (NF-κB assay)
In short: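 THP1-NF-κB-LUC cells (25k/well) were pretreated with compounds for 2 h, then stimulated with LPS (10 ng/mL) for 18 h. Secreted luciferase was measured and normalized to vehicle, and IC50 was fitted from the concentration series.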

[2] = system: TNF release; assay: TNF assay: TNF release from LPS-stimulated human PBMCs (TNF ELISA); type: cell-based; conditions: PBMC, read-out: IC50 (TNF assay)
In short: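 Human PBMCs at 10k/well pretreated with compound dilutions 2 h, then stimulated with LPS (10 ng/mL) for 18 h. TNF in supernatants quantified by ELISA; IC50 for inhibition of TNF release fitted from concentration–response.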

[3] = compounds 2 hours before LPS (10 ng/mL) for 18 hours, secreted luciferase
[4] = human PBMCs, compounds 2 hours before LPS (10 ng/ml) for 18 hours, supernatant TNF ELISA
[5] = LPS-stimulated human PBMCs, TNF ELISA

IC50 [1, 3] [µM]	IC50 [2, 4] [µM]	IC50 ([1]; LPS-stimulated) [µM]	IC50 [2, 5] [µM]	SMILES
> 10	> 10			O=C1COc2cc(S(=O)(=O)NCc3ccc(F)cc3F)c(Br)cc2N1 [BC19393]
< 0.1	> 10			CC1Oc2c(cc(Cl)cc2S(=O)(=O)Nc2ccc(OC(F)(F)F)cc2)NC1=O (stereo not drawn) [BC19394]
		0.1 to 1	< 0.1	CN1CCN(C(=O)c2ccc3nc(-c4ccc(F)cc4)c(S(=O)(=O)c4cccc(F)c4)nc3c2)CC1 [BC19395]
		< 0.1	> 10	OCCn1cc(-c2ccc3nc(-c4ccc(F)cc4)c(-c4ccc(F)cc4)nc3c2)nn1 [BC19396]
		< 0.1	0.1 to 1	C#CC(=O)Nc1ccc2nc(-c3ccc(F)cc3)c(-c3ccc(F)cc3)nc2c1 [BC19397]
		0.1 to 1	> 10	CN1CCN(C(=O)c2ccc3nc(-c4ccc(F)cc4)c(-c4ccc(Cl)cc4Cl)nc3c2)CC1 [BC19398]
		> 10	> 10	CN1CCN(C(=O)c2ccc3nc(-c4ccc(F)cc4)c(-c4ccc(OC(F)(F)F)cc4)nc3c2)CC1 [BC19399]
		> 10	> 10	CN1CCN(C(=O)c2cccc3nc(-c4ccc(F)cc4)c(-c4ccc(F)cc4)nc23)CC1 [BC19400]
		< 0.1	> 10	Cn1cc(-c2cnc3nc(-c4ccc(F)cc4)c(-c4ccc(F)cc4)nc3c2)nn1 [BC19401]
		< 0.1	> 10	CCCn1cc(-c2cnc3nc(-c4ccc(F)cc4)c(-c4ccc(F)cc4)nc3c2)nn1 [BC19402]
		0.1 to 1	> 10	Fc1ccc(-c2nc3cccnc3nc2-c2ccc(F)cc2)cc1 [BC19403]
		1 to 10	> 10	OCCn1ncc(-c2ccc3nc(-c4ccc(F)cc4)c(-c4ccc(F)cc4)nc3c2)n1 [BC19404]
		0.1 to 1	> 10	CN1CCN(C(=O)c2ccc3nc(-c4ccc(F)cc4F)c(-c4ccccc4)nc3c2)CC1 [BC19405]
		0.1 to 1	> 10	C#CCNC(=O)c1ccc2nc(-c3ccc(F)cc3F)c(-c3ccccc3)nc2c1 [BC19406]
		0.1 to 1	> 10	O=C(O)c1cnc2nc(-c3ccc(F)cc3)c(-c3ccc(F)cc3)nc2c1 [BC19407]
		0.1 to 1	> 10	CN1CCN(C(=O)c2cnc3nc(-c4ccc(F)cc4)c(-c4ccc(F)cc4)nc3c2)CC1 [BC19408]
> 10	> 10			O=c1c(S(=O)(=O)c2cccc(F)c2)c(O)[nH]c2ncccc12 [BC19409]
		0.1 to 1	> 10	COc1cccc(-c2nc(S(=O)(=O)c3ccc(Cl)cc3)c(S(C)(=O)=O)[nH]2)c1 [BC19410]
		< 0.1	< 0.1	CC(C)S(=O)(=O)c1oc(-c2cccc(F)c2)nc1S(=O)(=O)c1ccc(Cl)cc1 [BC19411]
		0.1 to 1	0.1 to 1	O=S(=O)(c1ccc(Cl)cc1)c1nc(-c2cccc(F)c2)oc1S(=O)(=O)C1CCCCC1 [BC19412]
		> 10	1 to 10	C[S+]([O-])c1sc(-c2ccc(F)cc2)nc1S(=O)(=O)c1ccc(Cl)cc1 (stereo not drawn) [BC19413]
		> 10	> 10	CCC[S+]([O-])c1sc(-c2ccc(F)cc2)nc1S(=O)(=O)c1ccc(Cl)cc1 (stereo not drawn) [BC19414]

IC50 [1, 3] [µM]	IC50 [2, 4] [µM]	IC50 ([1]; LPS-stimulated) [µM]	IC50 [2, 5] [µM]	SMILES
		> 10	1 to 10	CC(C)[S+]([O-])c1sc(-c2ccc(F)cc2)nc1S(=O)(=O)c1ccc(Cl)cc1 (stereo not drawn) [BC19415]
		> 10	> 10	O=S(=O)(c1ccc(Cl)cc1)c1nc(-c2ccc(F)cc2)sc1[S+]([O-])CC1CC1 (stereo not drawn) [BC19416]
		0.1 to 1	1 to 10	CCC[S+]([O-])c1oc(-c2ccc(Cl)cc2)nc1S(=O)(=O)c1ccc(Cl)cc1 (stereo not drawn) [BC19417]
		1 to 10	1 to 10	CCCS(=O)(=O)c1oc(-c2ccc(Cl)cc2)nc1S(=O)(=O)c1ccc(Cl)cc1 [BC19418]
		1 to 10	0.1 to 1	CC(C)CS(=O)(=O)c1oc(-c2ccc(Cl)cc2)nc1S(=O)(=O)c1ccc(Cl)cc1 [BC19419]
		> 10	> 10	COCC[S+]([O-])c1[nH]c(-c2ccccc2)nc1S(=O)(=O)c1ccc(Cl)cc1 (stereo not drawn) [BC19420]
< 0.1	> 10			CCS(=O)(=O)c1cc2c(c(S(=O)(=O)Nc3ccc(F)c(F)c3)c1)OCC(=O)N2 [BC19421]
< 0.1	> 10			CS(=O)(=O)c1cc2c(c(S(=O)(=O)Nc3ccc(OC(F)(F)F)cc3)c1)OCC(=O)N2 [BC19422]
< 0.1	> 10			Cc1ccc(NS(=O)(=O)c2cc(S(C)(=O)=O)cc3c2OCC(=O)N3)cc1F [BC19423]
< 0.1	> 10			CC(C)c1ccc(NS(=O)(=O)c2cc(S(C)(=O)=O)cc3c2OCC(=O)N3)cc1 [BC19424]
< 0.1	> 10			CS(=O)(=O)c1cc2c(c(S(=O)(=O)Nc3ccc(F)cc3F)c1)OCC(=O)N2 [BC19425]
< 0.1	> 10			CS(=O)(=O)c1cc2c(c(S(=O)(=O)Nc3cccc(F)c3)c1)OCC(=O)N2 [BC19426]
< 0.1	> 10			CS(=O)(=O)c1cc2c(c(S(=O)(=O)Nc3cccc(Cl)c3)c1)OCC(=O)N2 [BC19427]
0.1 to 1	> 10			CS(=O)(=O)c1cc2c(c(S(=O)(=O)Nc3ccc(F)cc3Cl)c1)OCC(=O)N2 [BC19428]
> 10	> 10			COc1ccc(NS(=O)(=O)c2cc(S(C)(=O)=O)cc3c2OCC(=O)N3)cc1Cl [BC19429]
< 0.1	> 10			CS(=O)(=O)c1cc2c(c(S(=O)(=O)Nc3ccc(F)cc3)c1)OCC(=O)N2 [BC19430]
< 0.1	> 10			CS(=O)(=O)c1cc2c(c(S(=O)(=O)Nc3ccc(C#N)cc3)c1)OCC(=O)N2 [BC19431]
0.1 to 1	> 10			Cc1ccc(NS(=O)(=O)c2c(C)c(Cl)cc3c2OCC(=O)N3)cc1 [BC19432]
< 0.1	> 10			Cc1ccc(NS(=O)(=O)c2c(C)c(Cl)cc3c2OCC(=O)N3)cc1Cl [BC19433]
< 0.1	> 10			Cc1c(Cl)cc2c(c1S(=O)(=O)Nc1ccc(Cl)cc1)OCC(=O)N2 [BC19434]
< 0.1	> 10			CCS(=O)(=O)c1cc2c(c(S(=O)(=O)Nc3ccc(OC(F)(F)F)cc3)c1)OCC(=O)N2 [BC19435]
< 0.1	> 10			CCS(=O)(=O)c1cc2c(c(S(=O)(=O)Nc3ccc(C)c(F)c3)c1)OCC(=O)N2 [BC19436]

IC50 [1, 3] [µM]	IC50 [2, 4] [µM]	IC50 ([1]; LPS-stimulated) [µM]	IC50 [2, 5] [µM]	SMILES
< 0.1	> 10			CCS(=O)(=O)c1cc2c(c(S(=O)(=O)Nc3ccccc3)c1)OCC(=O)N2 [BC19437]
< 0.1	> 10			CCS(=O)(=O)c1cc2c(c(S(=O)(=O)Nc3ccc(OC)cc3)c1)OCC(=O)N2 [BC19438]
< 0.1	> 10			CCc1cccc(NS(=O)(=O)c2cc(S(=O)(=O)CC)cc3c2OCC(=O)N3)c1 [BC19439]
< 0.1	> 10			CCS(=O)(=O)c1cc2c(c(S(=O)(=O)Nc3cccc(F)c3)c1)OCC(=O)N2 [BC19440]
< 0.1	> 10			CCS(=O)(=O)c1cc2c(c(S(=O)(=O)Nc3cccc(Cl)c3)c1)OCC(=O)N2 [BC19441]
0.1 to 1	> 10			CCS(=O)(=O)c1cc2c(c(S(=O)(=O)Nc3ccc(F)cc3Cl)c1)OCC(=O)N2 [BC19442]
< 0.1	> 10			CCS(=O)(=O)c1cc2c(c(S(=O)(=O)Nc3ccc(F)cc3)c1)OCC(=O)N2 [BC19443]
		0.1 to 1	> 10	Cn1cnnc1-c1ccc2nc(-c3ccc(F)cc3F)c(-c3ccccc3)nc2c1 [BC19444]
		> 10	> 10	CN1CCN(C(=O)c2ccc3nc(-c4ccc(OC(F)(F)F)cc4)c(-c4ccc(OC(F)(F)F)cc4)nc3c2)CC1 [BC19445]
		> 10	> 10	CN1CCN(C(=O)c2ccc3nc(-c4ccc(C#N)cc4)c(-c4ccc(C#N)cc4)nc3c2)CC1 [BC19446]
		> 10	> 10	CNC(=O)c1ccc2nc(-c3ccc(OC(F)(F)F)cc3)c(-c3ccc(OC(F)(F)F)cc3)nc2c1 [BC19447]
		0.1 to 1	> 10	Oc1ccc2nc(-c3ccc(F)cc3)c(-c3ccc(F)cc3)nc2n1 [BC19448]
		> 10	> 10	O=C(O)c1ccc2nc(-c3ccc(OC(F)(F)F)cc3)c(-c3ccc(OC(F)(F)F)cc3)nc2c1 [BC19449]
		1 to 10	> 10	CN1CCN(C(=O)c2ccc3nc(-c4ccc(Cl)cc4)c(-c4ccc(Cl)cc4)nc3c2)CC1 [BC19450]
		0.1 to 1	> 10	C#CCNC(=O)c1ccc2nc(-c3ccc(Cl)cc3)c(-c3ccc(Cl)cc3)nc2c1 [BC19451]
		0.1 to 1	> 10	O=C(NCCO)c1ccc2nc(-c3ccc(Cl)cc3)c(-c3ccc(Cl)cc3)nc2c1 [BC19452]
		> 10	> 10	O=C(NCCO)c1ccc2nc(-c3ccc(OC(F)(F)F)cc3)c(-c3ccc(OC(F)(F)F)cc3)nc2c1 [BC19453]
> 10	> 10			O=c1[nH]ccc2cc([S+]([O-])c3ccccc3)ccc12 (stereo not drawn) [BC19454]
> 10	> 10			COc1ccc(S(=O)(=O)c2cnccc2O)cc1OC [BC19455]
> 10	> 10			O=S(=O)(c1ccc(Cl)cc1)c1cnccc1O [BC19456]
> 10	> 10			COc1ccc(S(=O)(=O)c2cnccc2O)cc1 [BC19457]
> 10	> 10			Cc1ccc([S+]([O-])c2cnccc2O)c(C)c1 (stereo not drawn) [BC19458]
